Active and inactive are the calls of the source.
What was measured:
[1] = target: Eukaryotic translation initiation factor 4H (Homo sapiens, UniProt Q15056); assay: human eIF4H binding inhibitors, primary screen, translation initiation inhibitor project, biochemical, uHTS, fluorescence polarization (AID 2012)
[2] = target: T1, Heat shock 70 kDa protein 1A (Homo sapiens, UniProt P0DMV8); assay: Hsp70 inhibitors, biochemical, TR-FRET (AID 786)
[3] = target: T1, Heat shock 70 kDa protein 1A; assay: Hsp70 inhibitors, probe displacement, primary screen, biochemical, fluorescence polarization (AID 583)
[4] = Counterscreen for IDE inhibitors: Luminescence-based cell-based high throughput dose response assay to identify compounds that are cytotoxic to HEK cells. [Related pubchem assays: 434962 (Primary screen (IDE inhibitors in singlicate)), 449730 (Counterscreen (Cytotoxicity in triplicate)), 435028 (Confirmation (IDE inhibitors in triplicate)) …; type: functional; conditions: HEK293
[5] = target: Protein-tyrosine kinase 2-beta (Homo sapiens, UniProt Q14289);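 further: potency of inhibitors of PYK2 kinase phosphorylation of poly-GT substrate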
Insulin-degrading enzyme = target: T2, Insulin-degrading enzyme (Homo sapiens, UniProt P14735); assay: Dose Response: Fluorescence polarization-based cell-based high throughput dose response assay for inhibitors of insulin-degrading enzyme (IDE). [Related pubchem assays: 434962 (Primary screen (IDE inhibitors in singlicate)), 449730 (Counterscreen (Cytotoxicity in triplicate)), 435028 (Confirmation (IDE inhibitors in triplicate)), 434984 (Summary …; type: functional
T2 sequence (P14735 whole entry): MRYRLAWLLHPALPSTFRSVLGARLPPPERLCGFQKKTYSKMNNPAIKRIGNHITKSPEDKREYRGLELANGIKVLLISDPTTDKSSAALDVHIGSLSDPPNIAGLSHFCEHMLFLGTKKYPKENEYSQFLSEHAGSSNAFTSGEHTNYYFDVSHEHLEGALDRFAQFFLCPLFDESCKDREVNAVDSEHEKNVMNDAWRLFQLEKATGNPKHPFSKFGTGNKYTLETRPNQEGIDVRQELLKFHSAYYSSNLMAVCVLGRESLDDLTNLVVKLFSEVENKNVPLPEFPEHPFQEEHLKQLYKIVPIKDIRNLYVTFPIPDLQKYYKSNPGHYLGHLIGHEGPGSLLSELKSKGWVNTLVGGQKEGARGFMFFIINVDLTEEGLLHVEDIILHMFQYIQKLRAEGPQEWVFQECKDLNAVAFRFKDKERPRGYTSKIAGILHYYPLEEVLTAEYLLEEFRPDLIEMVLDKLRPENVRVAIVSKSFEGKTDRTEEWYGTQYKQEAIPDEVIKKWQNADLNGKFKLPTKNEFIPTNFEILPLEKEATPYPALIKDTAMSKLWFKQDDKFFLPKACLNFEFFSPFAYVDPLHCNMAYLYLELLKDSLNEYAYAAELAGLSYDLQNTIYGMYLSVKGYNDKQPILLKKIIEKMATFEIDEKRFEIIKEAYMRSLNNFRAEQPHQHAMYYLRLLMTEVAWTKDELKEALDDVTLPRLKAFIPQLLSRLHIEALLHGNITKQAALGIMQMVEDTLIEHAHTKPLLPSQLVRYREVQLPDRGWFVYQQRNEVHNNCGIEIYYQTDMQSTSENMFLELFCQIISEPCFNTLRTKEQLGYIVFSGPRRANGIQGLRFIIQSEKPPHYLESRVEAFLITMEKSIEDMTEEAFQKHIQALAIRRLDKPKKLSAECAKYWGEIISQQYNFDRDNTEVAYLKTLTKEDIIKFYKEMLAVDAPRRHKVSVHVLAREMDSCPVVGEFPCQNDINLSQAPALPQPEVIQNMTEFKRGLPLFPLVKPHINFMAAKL

[6] = target: Polyadenylate-binding protein 1 (Homo sapiens, UniProt P11940); assay: PABP poly(A) RNA binding inhibitors, primary screen, biochemical, fluorescence polarization, uHTS (AID 2014)
[7] = target: T3, Tyrosine-protein phosphatase non-receptor type 7 (Homo sapiens, UniProt P35236); assay: Dose Response confirmation of compounds that inhibit HePTP. [Related pubchem assays (depositor defined):AID1059, AID1661, AID2085]; type: functional
T3 sequence (P35236 whole entry): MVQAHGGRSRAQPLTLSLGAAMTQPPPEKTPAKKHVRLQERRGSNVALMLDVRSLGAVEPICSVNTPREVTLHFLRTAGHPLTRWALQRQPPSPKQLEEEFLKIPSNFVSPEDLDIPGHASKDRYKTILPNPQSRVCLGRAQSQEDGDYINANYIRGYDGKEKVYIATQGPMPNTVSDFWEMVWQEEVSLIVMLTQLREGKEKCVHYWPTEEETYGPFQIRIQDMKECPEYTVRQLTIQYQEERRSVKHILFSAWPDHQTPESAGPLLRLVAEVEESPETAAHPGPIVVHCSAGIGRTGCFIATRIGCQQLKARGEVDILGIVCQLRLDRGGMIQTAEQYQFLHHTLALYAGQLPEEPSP

[8] = target: T4, Dual specificity protein phosphatase 3 (Homo sapiens, UniProt P51452); assay: Dose Response Confirmation of compounds that inhibit VHR1 in Fluorescent Assay. [Related pubchem assays (depositor defined):AID1661, AID1878]; type: functional
[9] = target: T4, Dual specificity protein phosphatase 3; assay: SAR VHR1 Fluorescent Assay for In Vitro dose response studies Set 3. [Related pubchem assays (depositor defined):AID1654, AID1661, AID1878]; type: functional
[10] = inhibitors of HIV Env-driven cell fusion, dose response, cherry-pick (AID 652057); type: functional, cell-based
[11] = CEM21 lymphoblast cell cytotoxicity, dose response, cytotoxicity control for viral fusion inhibitor project, CellTiter-Glo luminescence, cherry-picked (AID 652042); type: functional, cell-based;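 further: potency for signal decrease meaning cytotoxicity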
fMet-Leu-Phe receptor = target: T5, fMet-Leu-Phe receptor (Homo sapiens, UniProt P21462); assay: FPR ligands, dose response (AID 519); type: functional
T5 sequence (P21462 whole entry): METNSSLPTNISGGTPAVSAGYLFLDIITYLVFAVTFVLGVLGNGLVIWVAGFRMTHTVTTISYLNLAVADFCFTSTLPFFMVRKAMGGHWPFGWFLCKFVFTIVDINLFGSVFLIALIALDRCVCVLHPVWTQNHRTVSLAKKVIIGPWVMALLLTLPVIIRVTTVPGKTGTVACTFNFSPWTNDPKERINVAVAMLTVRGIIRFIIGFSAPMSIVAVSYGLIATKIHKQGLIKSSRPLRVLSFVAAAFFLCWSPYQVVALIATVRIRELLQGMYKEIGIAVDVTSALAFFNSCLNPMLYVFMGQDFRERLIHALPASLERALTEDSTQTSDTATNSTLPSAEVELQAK

[12] = HEp-2 cell cytotoxicity, dose response, cytotoxicity control for RSV inhibitor project, HTS (AID 2410); type: functional; conditions: human respiratory syncytial virus
Vero [13] = assay: cells; type: functional, cell-based; conditions: Chlorocebus sabaeus
Vero [14] = assay: cells; type: functional; conditions: Chlorocebus sabaeus
HEK293 [15] = assay: cells; conditions: Homo sapiens
HEK293 [16] = assay: cells; conditions: Homo sapiens; remark: listed apart in the source

T4 sequence (P51452 whole entry): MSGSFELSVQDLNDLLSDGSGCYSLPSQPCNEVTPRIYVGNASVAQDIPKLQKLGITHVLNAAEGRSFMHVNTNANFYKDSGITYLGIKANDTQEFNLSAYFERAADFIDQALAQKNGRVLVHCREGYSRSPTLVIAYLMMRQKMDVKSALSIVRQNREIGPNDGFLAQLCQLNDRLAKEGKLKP
T1 sequence (P0DMV8 whole entry): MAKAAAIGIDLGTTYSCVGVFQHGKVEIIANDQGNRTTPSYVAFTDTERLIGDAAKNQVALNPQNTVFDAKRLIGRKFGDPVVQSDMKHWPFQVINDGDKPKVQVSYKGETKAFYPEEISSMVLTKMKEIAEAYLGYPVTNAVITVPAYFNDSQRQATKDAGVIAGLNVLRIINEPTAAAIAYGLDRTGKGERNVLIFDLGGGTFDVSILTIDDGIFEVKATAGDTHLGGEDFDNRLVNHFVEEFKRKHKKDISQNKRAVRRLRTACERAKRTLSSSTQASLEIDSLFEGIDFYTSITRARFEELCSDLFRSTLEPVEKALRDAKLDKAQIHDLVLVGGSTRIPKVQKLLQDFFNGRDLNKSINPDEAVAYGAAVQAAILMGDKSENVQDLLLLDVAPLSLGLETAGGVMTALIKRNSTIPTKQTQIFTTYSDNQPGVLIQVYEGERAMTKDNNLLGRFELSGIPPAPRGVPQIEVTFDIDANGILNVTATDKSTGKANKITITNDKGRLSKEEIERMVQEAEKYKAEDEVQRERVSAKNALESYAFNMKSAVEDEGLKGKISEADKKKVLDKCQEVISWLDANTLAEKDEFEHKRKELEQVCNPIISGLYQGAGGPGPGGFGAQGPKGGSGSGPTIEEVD
Polyadenylate-binding protein 1, sequence (P11940 whole entry): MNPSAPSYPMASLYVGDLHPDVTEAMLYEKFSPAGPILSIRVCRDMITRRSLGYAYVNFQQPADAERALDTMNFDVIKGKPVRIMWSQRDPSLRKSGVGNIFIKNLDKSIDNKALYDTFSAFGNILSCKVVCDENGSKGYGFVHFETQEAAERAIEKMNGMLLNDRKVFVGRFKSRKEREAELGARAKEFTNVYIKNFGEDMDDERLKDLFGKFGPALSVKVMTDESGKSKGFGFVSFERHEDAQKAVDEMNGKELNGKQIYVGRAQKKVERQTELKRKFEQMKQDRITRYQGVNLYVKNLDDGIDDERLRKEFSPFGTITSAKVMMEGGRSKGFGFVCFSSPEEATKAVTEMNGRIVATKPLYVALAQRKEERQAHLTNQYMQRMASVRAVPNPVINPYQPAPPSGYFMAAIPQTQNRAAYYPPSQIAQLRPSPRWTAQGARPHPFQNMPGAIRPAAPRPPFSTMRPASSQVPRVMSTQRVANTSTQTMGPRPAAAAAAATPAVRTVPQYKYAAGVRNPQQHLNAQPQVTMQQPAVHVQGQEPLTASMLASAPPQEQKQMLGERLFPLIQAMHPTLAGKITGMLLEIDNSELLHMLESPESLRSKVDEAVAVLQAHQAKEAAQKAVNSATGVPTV
Protein-tyrosine kinase 2-beta, sequence (Q14289 whole entry): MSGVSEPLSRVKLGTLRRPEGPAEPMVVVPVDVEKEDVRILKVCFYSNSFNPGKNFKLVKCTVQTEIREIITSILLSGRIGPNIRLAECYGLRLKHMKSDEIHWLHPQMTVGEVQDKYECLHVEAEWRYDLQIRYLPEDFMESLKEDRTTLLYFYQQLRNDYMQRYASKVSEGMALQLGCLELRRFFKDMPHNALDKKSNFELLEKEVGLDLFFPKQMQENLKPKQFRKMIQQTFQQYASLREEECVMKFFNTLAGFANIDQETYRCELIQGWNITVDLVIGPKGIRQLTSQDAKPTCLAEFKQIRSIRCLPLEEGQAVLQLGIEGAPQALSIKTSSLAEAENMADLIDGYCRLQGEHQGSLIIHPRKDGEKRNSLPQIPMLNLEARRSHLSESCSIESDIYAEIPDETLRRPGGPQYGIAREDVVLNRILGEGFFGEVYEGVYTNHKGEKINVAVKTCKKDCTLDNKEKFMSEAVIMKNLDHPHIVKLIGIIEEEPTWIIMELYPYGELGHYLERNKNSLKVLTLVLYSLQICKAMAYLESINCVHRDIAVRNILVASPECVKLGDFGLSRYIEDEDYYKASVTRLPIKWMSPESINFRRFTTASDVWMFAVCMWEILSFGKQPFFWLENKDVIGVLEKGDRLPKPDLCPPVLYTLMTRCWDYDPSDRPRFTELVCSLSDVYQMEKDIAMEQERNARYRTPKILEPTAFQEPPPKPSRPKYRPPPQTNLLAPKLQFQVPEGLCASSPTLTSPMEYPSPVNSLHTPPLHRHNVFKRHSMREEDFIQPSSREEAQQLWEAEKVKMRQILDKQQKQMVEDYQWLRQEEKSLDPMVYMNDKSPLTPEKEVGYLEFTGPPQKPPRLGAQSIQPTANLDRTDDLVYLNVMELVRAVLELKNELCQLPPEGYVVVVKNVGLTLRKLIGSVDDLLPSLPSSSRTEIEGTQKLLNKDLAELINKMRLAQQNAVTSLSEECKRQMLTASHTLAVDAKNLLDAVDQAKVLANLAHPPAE

Compound: COc1ccc(-c2nnc(Nc3nc4c(OC)cccc4s3)o2)cc1
- IC50 [1]: 12.5 µM (active)
- IC50 [2]: > 100 µM (not active)
- IC50 [3]: > 100 µM (not active)
- IC50 [4]: 17.1 µM (not active)
- IC50 [5]: 9.06 µM (active)
- IC50 (Insulin-degrading enzyme): > 55.9 µM (not active)
- IC50 [6]: > 100 µM (inactive)
- IC50 [7]: 6.08 µM (active)
- IC50 [8]: 1.78 µM (active)
- IC50 [9]: 3.61 µM (active)
- AC50 [10]: 5.28 µM (active)
- AC50 [11]: 52.2 µM (active)
- Ki (fMet-Leu-Phe receptor): > 66.7 µM (inactive)

Compound: CC1Cc2ccccc2N1S(=O)(=O)c1cccc(C(=O)N2CCN(c3ncccn3)CC2)c1 (centres undefined)
- CC50 [12]: 3.41 µM (active)
- IC50 (Vero [13]): 2.15 µM (active)
- CC50 (Vero [14]): > 25 µM (active)
- IC50 (cells): 1.01 µM (active)

Compound: Cc1nn2c(nc(N3CCCCC3)c3ccccc32)c1C=O
- EC50 (HEK293 [15]): > 59.7 µM (inactive)
- EC50 (HEK293 [16]): > 59.7 µM (inactive)

Source: ChEMBL document CHEMBL1201862, “PubChem BioAssay data set” (2004)
